# In patent publication EP4230621A1, “SUBSTITUTED N-BENZOIC ACID URACILS, THEIR SALTS AND USE OF SAID COMPOUNDS AS HERBICIDAL AGENTS” (Bayer AG, priority 2022, dated 2023):
# Tests used:
# Type in all cases: in vivo
# Triticum aestivum = assay: Post-emergence action on crop plants, TRZAS (greenhouse pot test); settings: crop plant
# Source text: (§1) Die folgenden Abkürzungen werden für die in den folgenden Tabellen aufgeführten Kultur- und Schadpflanzen verwendet: ABUTH: Abutilon theophrasti ALOMY: Alopecurus myosuroides AMARE: Amaranthus retroflexus BRSNS: Brassica napus DIGSA: Digitaria sanguinalis ECHCG: Echinochloa crus-galli GLXMA: Glycine max KCHSC: Kochia scoparia LOLRI: Lolium rigidum MATIN: Matricaria inodora ORYZA: Oryza sativa PHPBU: Pharbitis purpurea POLCO: Polygonum convolvulus SETVI: Setaria viridis VERPE: Veronica persica VIOTR: Viola tricolor TRZAS: Triticum aestivum ZEAMX: Zea mays
# (§2) Samen von mono- bzw. dikotylen Kulturpflanzen wurden in Kunststoff- oder Holzfasertöpfen in sandigem Lehmboden ausgelegt, mit Erde abgedeckt und im Gewächshaus unter kontrollierten Wachstumsbedingungen angezogen. 2 bis 3 Wochen nach der Aussaat wurden die Versuchspflanzen im Einblattstadium behandelt. Die in Form von benetzbaren Pulvern (WP) oder als Emulsionskonzentrate (EC) formulierten erfindungsgemäßen Verbindungen wurden dann als wässrige Suspension bzw. Emulsion unter Zusatz von 0,5% Additiv mit einer Wasseraufwandmenge von umgerechnet 600 1/ha auf die grünen Pflanzenteile gesprüht. Nach ca. 3 Wochen Standzeit der Versuchspflanzen im Gewächshaus, unter optimalen Wachstumsbedingungen, wurde die Wirkung der Präparate visuell im Vergleich zu unbehandelten Kontrollen bonitiert. Beispielsweise bedeutet 100% Wirkung = Pflanzen sind abgestorben, 0% Wirkung = wie Kontrollpflanzen.
# (§3) In den nachstehenden Tabellen B1 bis B3 sind die Wirkungen ausgewählter Verbindungen der allgemeinen Formel (I) gemäß der Tabelle 1 auf verschiedene Kulturpflanzen und einer Aufwandmenge entsprechend 20 g/ha und niedriger, die gemäß zuvor genannter Versuchsvorschrift erhalten wurden, dargestellt. Tabelle B1a: Nachauflaufwirkung bei 5 g/ha gegen ZEAMX in %
# Digitaria sanguinalis = assay: Post-emergence herbicidal action against DIGSA (greenhouse pot test); settings: visual rating after ca. 3 weeks vs untreated controls (100% = plants dead, 0% = like controls)
# Source text: as §1
# as §2, with “Unkrautpflanzen” for “Kulturpflanzen”
# as §3, with “A1” for “B1”, “A11” for “B3”, “Schadpflanzen” for “Kulturpflanzen”, “80” for “20”, “A1a:” for “B1a:”, “ABUTH” for “ZEAMX”
# Polygonum convolvulus = assay: Post-emergence herbicidal action against POLCO (greenhouse pot test)
# Source text: as §1
# as §2, with “Unkrautpflanzen” for “Kulturpflanzen”
# as §3, with “A1” for “B1”, “A11” for “B3”, “Schadpflanzen” for “Kulturpflanzen”, “80” for “20”, “A1a:” for “B1a:”, “ABUTH” for “ZEAMX”
# Amaranthus retroflexus = assay: Post-emergence herbicidal action against AMARE (greenhouse pot test); settings: visual rating after ca. 3 weeks vs untreated controls (100% = plants dead, 0% = like controls)
# Source text: as §1
# as §2, with “Unkrautpflanzen” for “Kulturpflanzen”
# as §3, with “A1” for “B1”, “A11” for “B3”, “Schadpflanzen” for “Kulturpflanzen”, “80” for “20”, “A1a:” for “B1a:”, “ABUTH” for “ZEAMX”
# Zea mays = assay: Post-emergence action on crop plants, ZEAMX (greenhouse pot test); settings: 5 g/ha, crop plant
# Source text: as §1, §2, §3
# Alopecurus myosuroides = assay: Post-emergence herbicidal action against ALOMY (greenhouse pot test); settings: visual rating after ca. 3 weeks vs untreated controls (100% = plants dead, 0% = like controls)
# Source text: as §1
# as §2, with “Unkrautpflanzen” for “Kulturpflanzen”
# as §3, with “A1” for “B1”, “A11” for “B3”, “Schadpflanzen” for “Kulturpflanzen”, “80” for “20”, “A1a:” for “B1a:”, “ABUTH” for “ZEAMX”
# Oryza sativa = assay: Post-emergence action on crop plants, ORYZA (greenhouse pot test); settings: 5 g/ha
# Source text: as §1, §2, §3
# Abutilon theophrasti = assay: Post-emergence herbicidal action against ABUTH (greenhouse pot test); settings: visual rating after ca. 3 weeks vs untreated controls (100% = plants dead, 0% = like controls)
# Source text: as §1
# as §2, with “Unkrautpflanzen” for “Kulturpflanzen”
# as §3, with “A1” for “B1”, “A11” for “B3”, “Schadpflanzen” for “Kulturpflanzen”, “80” for “20”, “A1a:” for “B1a:”, “ABUTH” for “ZEAMX”
# Viola tricolor = assay: Post-emergence herbicidal action against VIOTR (greenhouse pot test)
# Source text: as §1
# as §2, with “Unkrautpflanzen” for “Kulturpflanzen”
# as §3, with “A1” for “B1”, “A11” for “B3”, “Schadpflanzen” for “Kulturpflanzen”, “80” for “20”, “A1a:” for “B1a:”, “ABUTH” for “ZEAMX”
# Matricaria inodora = assay: Post-emergence herbicidal action against MATIN (greenhouse pot test); settings: for Nachauflaufwirkung gegen MATIN: visual rating after ca. 3 weeks vs untreated controls (100% = plants dead, 0% = like controls)
# Source text: as §1
# as §2, with “Unkrautpflanzen” for “Kulturpflanzen”
# as §3, with “A1” for “B1”, “A11” for “B3”, “Schadpflanzen” for “Kulturpflanzen”, “80” for “20”, “A1a:” for “B1a:”, “ABUTH” for “ZEAMX”
# Setaria viridis = assay: Post-emergence herbicidal action against SETVI (greenhouse pot test)
# Source text: as §1
# as §2, with “Unkrautpflanzen” for “Kulturpflanzen”
# as §3, with “A1” for “B1”, “A11” for “B3”, “Schadpflanzen” for “Kulturpflanzen”, “80” for “20”, “A1a:” for “B1a:”, “ABUTH” for “ZEAMX”
# Lolium rigidum = assay: Post-emergence herbicidal action against LOLRI (greenhouse pot test); settings: visual rating after ca. 3 weeks vs untreated controls (100% = plants dead, 0% = like controls)
# Source text: as §1
# as §2, with “Unkrautpflanzen” for “Kulturpflanzen”
# as §3, with “A1” for “B1”, “A11” for “B3”, “Schadpflanzen” for “Kulturpflanzen”, “80” for “20”, “A1a:” for “B1a:”, “ABUTH” for “ZEAMX”
# Veronica persica = assay: Post-emergence herbicidal action against VERPE (greenhouse pot test)
# Source text: as §1
# as §2, with “Unkrautpflanzen” for “Kulturpflanzen”
# as §3, with “A1” for “B1”, “A11” for “B3”, “Schadpflanzen” for “Kulturpflanzen”, “80” for “20”, “A1a:” for “B1a:”, “ABUTH” for “ZEAMX”
# Pharbitis purpurea = assay: Post-emergence herbicidal action against PHBPU (greenhouse pot test)
# Source text: as §1
# as §2, with “Unkrautpflanzen” for “Kulturpflanzen”
# as §3, with “A1” for “B1”, “A11” for “B3”, “Schadpflanzen” for “Kulturpflanzen”, “80” for “20”, “A1a:” for “B1a:”, “ABUTH” for “ZEAMX”
compound,measurement,setting,value
Cn1c(C(F)(F)F)cc(=O)n(-c2cc(C(=O)OC(C)(C)C(=O)OCc3ccccn3)c(Cl)cc2F)c1=O [I.1-286],Nachauflaufwirkung gegen TRZAS in %,Triticum aestivum; 5 g/ha,10%
same,Nachauflaufwirkung gegen TRZAS in %,Triticum aestivum; 20 g/ha,20%
same,Nachauflaufwirkung gegen DIGSA,Digitaria sanguinalis; 5 g/ha,100%
same,Nachauflaufwirkung gegen DIGSA,Digitaria sanguinalis; 20 g/ha,100%
same,Nachauflaufwirkung gegen DIGSA,Digitaria sanguinalis; 80 g/ha,100%
same,Nachauflaufwirkung gegen POLCO in %,Polygonum convolvulus; 5 g/ha,100%
same,Nachauflaufwirkung gegen POLCO in %,Polygonum convolvulus; 20 g/ha,100%
same,Nachauflaufwirkung gegen POLCO in %,Polygonum convolvulus; 80 g/ha,100%
same,Nachauflaufwirkung gegen AMARE,Amaranthus retroflexus; 5 g/ha,100%
same,Nachauflaufwirkung gegen AMARE,Amaranthus retroflexus; 20 g/ha,100%
same,Nachauflaufwirkung gegen AMARE,Amaranthus retroflexus; 80 g/ha,100%
same,Nachauflaufwirkung gegen ZEAMX in %,Zea mays,20%
same,Nachauflaufwirkung gegen ALOMY,Alopecurus myosuroides; 20 g/ha,100%
same,Nachauflaufwirkung gegen ALOMY,Alopecurus myosuroides; 80 g/ha,100%
same,Nachauflaufwirkung gegen ORYZA in %,Oryza sativa,0%
same,Nachauflaufwirkung gegen ABUTH,Abutilon theophrasti; 5 g/ha,100%
same,Nachauflaufwirkung gegen ABUTH,Abutilon theophrasti; 20 g/ha,100%
same,Nachauflaufwirkung gegen ABUTH,Abutilon theophrasti; 80 g/ha,100%
same,Nachauflaufwirkung gegen VIOTR in %,Viola tricolor; 5 g/ha,100%
same,Nachauflaufwirkung gegen VIOTR in %,Viola tricolor; 20 g/ha,100%
same,Nachauflaufwirkung gegen VIOTR in %,Viola tricolor; 80 g/ha,100%
same,Nachauflaufwirkung gegen MATIN,Matricaria inodora; 5 g/ha,100%
same,Nachauflaufwirkung gegen MATIN,Matricaria inodora; 20 g/ha,100%
same,Nachauflaufwirkung gegen MATIN in %,Matricaria inodora; 80 g/ha,100%
same,Nachauflaufwirkung gegen SETVI in %,Setaria viridis; 5 g/ha,100%
same,Nachauflaufwirkung gegen SETVI in %,Setaria viridis; 20 g/ha,100%
same,Nachauflaufwirkung gegen SETVI in %,Setaria viridis; 80 g/ha,100%
same,Nachauflaufwirkung gegen LOLRI,Lolium rigidum; 20 g/ha,90%
same,Nachauflaufwirkung gegen LOLRI,Lolium rigidum; 80 g/ha,100%
same,Nachauflaufwirkung gegen VERPE in %,Veronica persica; 5 g/ha,100%
same,Nachauflaufwirkung gegen VERPE in %,Veronica persica; 20 g/ha,100%
same,Nachauflaufwirkung gegen VERPE in %,Veronica persica; 80 g/ha,100%
same,Nachauflaufwirkung gegen PHBPU in %,Pharbitis purpurea; 5 g/ha,100%
same,Nachauflaufwirkung gegen PHBPU in %,Pharbitis purpurea; 20 g/ha,100%
same,Nachauflaufwirkung gegen PHBPU in %,Pharbitis purpurea; 80 g/ha,100%
